Measured values from article PMC3129543 (Molecular informatics, 2011).
Like-named read-outs stand apart in the source and are kept apart here.

How the values were obtained:
[1] = molecular target: T1, glutamate racemase from Bacillus subtilis (RacE) (Bacillus subtilis, UniProt P94556); conditions: BsGR; presented previously; cited from earlier work
[2] = molecular target: T1, glutamate racemase from Bacillus subtilis (RacE); type: biochemical
[3] = 1 and derivatives thereof; target not determined; cited from earlier work
[4] = 1 and derivatives thereof; cited from earlier work

T1 sequence (P94556 whole entry): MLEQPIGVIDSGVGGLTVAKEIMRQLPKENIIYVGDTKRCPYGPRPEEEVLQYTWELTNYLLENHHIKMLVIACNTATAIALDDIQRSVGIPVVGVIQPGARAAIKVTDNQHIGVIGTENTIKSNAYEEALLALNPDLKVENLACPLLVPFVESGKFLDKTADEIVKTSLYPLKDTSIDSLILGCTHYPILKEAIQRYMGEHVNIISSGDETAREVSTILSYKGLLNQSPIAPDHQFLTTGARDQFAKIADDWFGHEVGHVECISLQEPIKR

Structure (SMILES)	mode of inhibition [1]	ligand efficiency [2] [kcal/mol/heavy atom]	mode of inhibition ([2]; verified by global fitting to varying inhibition models)	antibacterial and antifungal activity [3]	toxicity [4]
O=S(=O)(O)c1ccc(O)c(S(=O)(=O)O)c1 [Compound 3, 4-Hydroxy-1,3-benzenedisulfonic acid]	competitive inhibitors				
O=C(O)c1cccc(C(=O)O)n1 [Compound 9, dipicolinic acid]	competitive inhibitors				
O=c1c(O)c(O)c(=O)c1=O [Compound 2, Croconic acid]	competitive inhibitors				
O=S(=O)(O)c1nc2ccccc2[nH]1 [Compound 1, benzimidazole-2-sulfonic acid]		0.53	competitive inhibitor	antibacterial and antifungal activity	low toxicity
